From US20220396794A1, “APTAMERS AGAINST TRANSFERRIN RECEPTOR (TfR)” (APTERNA LIMITED, priority 2019, published 2022) come the findings set out here.

The subject of data set [1] is p21 mRNA. As to the kind of experiment: Relative gene expression by qPCR in vitro, p21. Format: cell-based, human. On the procedure:
(§1) Relative gene expression analysis by qPCR in vitro. For analyzing gene activation and protein expression, PANC-1 cells were seeded in duplicate into 24-well plates at a density of 1×10^5 cells per well. tTR14 or control aptamer (IRRE) conjugated to C/EBPα-saRNAs were added directly to the cells, at a final concentration of 100 nM or 200 nM. The treatment was repeated 24 h later and cells were harvested at final incubation times of 48 or 72 h. Total RNA was extracted for reverse transcription using an RNeasy kit (Qiagen). Target cDNA amplification and real-time PCR was performed using a Bio-rad kit (SsoAdvanced™ Universal SYBR® Green Supermix). For normalization, the reference gene 18S was used. To determine gene expression in vivo samples, total RNA was extracted for reverse transcription (QuantiFast® Reverse transcription, Qiagen) and target cDNA was amplified using real-time PCR (QuantiFast® SYBR®Green Master mix). The cDNA probes used were purchased as prevalidated QuantiTect® SYBR probes from Qiagen. Real-time PCR was performed with validated QuantiTect® SYBR probes (Qiagen) or validated FAM probes (Applied Biosystems).

For data set [2], the system named is albumin mRNA. As to the kind of experiment: Analysis of gene expression in vivo in C57BL/6J mice, albumin. The note with it: B6 mice, 3 doses of 1 nmol via tail vein, tissue harvesting on day 8. Here is the method:
as §1
(§2) Analysis of gene expression in vivo. Female or male at 6 week C57BL/6J mice were purchased from the Jackson laboratory for three conjugates; TC, TCT, and TCUT. […]

Data set [3] concerns C/EBPα mRNA. The data set can be described thus: Analysis of gene expression in vivo in C57BL/6J mice, C/EBPα. The note with it: B6 mice, 3 doses of 1 nmol via tail vein. Here is the method: as §1, §2
Data set [4] deals with C/EBPα mRNA. The data set can be described thus: Relative gene expression by qPCR in vitro, C/EBPα. Format: cell-based, human. On the procedure: as §1
The subject of data set [5] is PANC-1 cells. The data set can be described thus: MTS assay, inhibition of cell proliferation. Format: cell-based, human. Here is the method:
MTS assay. […] Cells were treated with tTR14-C/EBPα and […] at 100 nM or 200 nM twice at 24-h intervals.

Data set [6] deals with PANC-Luc tumors. The data set can be described thus: Liver-metastatic pancreatic cancer mouse model, combinational treatment with gemcitabine. Format: in vivo, NOD/SCID mice. The note with it: conjugate 1 nmol 3 times/week I.P. combined with gemcitabine 50 mg/kg 2 times/week I.V., compared with PBS. Here is the method:
Intrahepatic pancreatic cancer liver-metastatic mouse model. To create an animal model harboring traceable tumors, a firefly luciferase fragment was inserted into the pLKO.1-AS3 backbone encoding the neo gene (National RNAi Core, Academia Sinica, Taiwan). One day before transduction, 293T cells were plated onto a 6-well plate. On the day of transduction, the medium was replaced with DMEM containing serial dilutions of the transfer plasmids and incubated for 5 h, then the medium was replaced. After two days, the culture medium containing recombinant lentiviral particles was obtained. PANC-1 cells were incubated with recombinant lentiviral particles for 24 h. […] Luciferase expression was assessed using the Luciferase Assay System. […] For the combinational treatment with gemcitabine, tumors were allowed to grow for 2 weeks after inoculation until they could be detected using an IVIS system, then mice were randomly divided into five groups of 10 animals/group. […] Tumor growth was monitored by evaluating bioluminescence using an IVIS 200 in vivo imaging platform (Caliper Life Sciences, Alameda, Calif.) and measuring the difference from before the first injection and one day after the last injection. […] The mice were imaged using the IVIS 200 and bioluminescent signals were analyzed using Living Image Software (Caliper Life Sciences, Alameda, Calif.). […]

Where [7] appears, read: PANC-1, 100 nM, 48 or 72 h (FIG. 7).
[8] abbreviates: PANC-1, 72 h, 100 nM, compared to IRRE control group (FIG. 3).

Regarding “TCUT: TR14 ST1-3 with CEBPA sense, a 10-uracil spacer and albumin affinity tag (UUUAUUCACAUUUUUGAAUUGAGCGGUCAUUGUCACUGGUCUUUUUUUUUUUUN; listed as RNA, chemistry not given here)”, the “upregulation of p21” value in data set [1] (setting [7]) is “upregulation”. Besides, the “mRNA expression of p21” value in data set [1] (setting [8]) was “upregulation”. Besides, the “albumin mRNA levels in liver” value in data set [2] is “none increased”. In addition, the “mRNA levels of C/EBPα in brain tissue” value in data set [3] (tissue harvesting on day 8) is recorded as “no upregulation”. For the same substance, the “mRNA levels of C/EBPα in liver” value in data set [3] (tissue harvesting on day 8, compared to untreated group) is listed as “increased”. In addition, in data set [4] (setting [7]), the “upregulation of C/EBPα” value is “upregulation”. Besides, in data set [4] (setting [8]), the “mRNA expression of C/EBPα” value is recorded as “upregulation”. The “cell proliferation by MTS assay” value in data set [5] (setting [7]) is reported as “inhibited the cancer cell proliferation”; in data set [5] (PANC-1, 72 h, compared to IRRE control group (FIG. 3)), “inhibition of tumor cell proliferation”. Besides, the “tumor burden by measuring photon increase” value in data set [6] was “significant reduction of tumor burden”.
